This passage reports IC50 results from patent US12371454B2, “Cyclic peptide compound having Kras inhibitory action” (priority 2019, dated 2025).

For this assay, the target named is T1, Kras and SOS1 (biotin-tagged human Kras loaded with GDP, His-tagged human SOS1) (Homo sapiens, UniProt P01116, G12D).
T1 construct: made in house; host or cells: E. coli (stated for Kras only)
The experiment in a line: Protein-protein interaction inhibition between Kras and SOS1 (KrasGl2D-SOS PPI) using AlphaScreen. The format is binding. Particulars: AlphaScreen; biotin-tagged human Kras loaded with GDP, His-tagged human SOS1; read-out: KRAS G12D-SOS PPI IC50. The method in brief: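 Donor beads (nickel) hold His-SOS1; acceptor beads (streptavidin) hold biotin-Kras bound to GDP. Signal measured at 520-620 nm following 680 nm excitation.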
(In general: Alpha assays give light when donor and acceptor beads are brought close together.)

SMILES strings stand for the structures. Positions of bridges follow the written chain, without caps; N, C: chain ends. Non-standard residues stand in square brackets, D forms with d. Residues, ends and D or L forms follow the SMILES beside them. *: point of attachment. hPhe(3-Cl-4-CF3) = N[C@@H](CCc1ccc(C(F)(F)F)c(Cl)c1)C(=O)O; NMePhe(3-Cl) = CN[C@@H](Cc1cccc(Cl)c1)C(=O)O; NMePhe(4-Cl) = CN[C@@H](Cc1ccc(Cl)cc1)C(=O)O; hPhe(4-Cl) = N[C@@H](CCc1ccc(Cl)cc1)C(=O)O; NMeMet(O2) = CN[C@@H](CCS(C)(=O)=O)C(=O)O; NMeAla(cPent) = CN[C@@H](CC1CCCC1)C(=O)O; NMeGly(cPent) = CN[C@H](C(=O)O)C1CCCC1; Phe(3-I) = N[C@@H](Cc1cccc(I)c1)C(=O)O; Phe(4-Me) = Cc1ccc(C[C@H](N)C(=O)O)cc1; NMeGly(cBu) = CN[C@H](C(=O)O)C1CCC1; NMeCha = CN[C@@H](CC1CCCCC1)C(=O)O; NMeChg = CN[C@H](C(=O)O)C1CCCCC1; NMeE = CN[C@@H](CCC(=O)O)C(=O)O; NMeD = CN[C@@H](CC(=O)O)C(=O)O; NMeL = CN[C@@H](CC(C)C)C(=O)O; NMehSer = CN[C@@H](CCO)C(=O)O; NMeV = CN[C@H](C(=O)O)C(C)C; d(β3hA) = C[C@@H](N)CC(=O)O; NMeA = CN[C@@H](C)C(=O)O; NMeAib = CNC(C)(C)C(=O)O; Piperidide = C1CCN(*)CC1; Ac5c = NC1(C(=O)O)CCCC1; Aze = O=C(O)[C@@H]1CCN1; Sar = CNCC(=O)O

T1 sequence (P01116 1-188 isoform P01116-2 G12D): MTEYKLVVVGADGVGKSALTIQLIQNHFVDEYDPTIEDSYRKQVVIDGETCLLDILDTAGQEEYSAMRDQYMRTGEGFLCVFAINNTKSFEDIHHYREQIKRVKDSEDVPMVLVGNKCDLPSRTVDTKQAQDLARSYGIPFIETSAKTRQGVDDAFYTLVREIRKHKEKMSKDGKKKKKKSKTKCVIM

The term IC50 denotes the concentration that inhibits the measured activity by half. On to `CC[C@H](C)[C@@H]1NC(=O)[C@H](C(C)C)N(C)C(=O)C[C@@H](C)NC(=O)[C@H](CC(C)C)N(C)C(=O)C2(CCCC2)NC(=O)[C@H](CC(C)C)N(C)C(=O)[C@H](CCc2ccc(C(F)(F)F)c(Cl)c2)NC(=O)CN(C)C(=O)[C@H](Cc2ccc(Cl)cc2)N(C)C(=O)[C@@H]2CCN2C(=O)CN(C)C1=O` [Compound 158] (cyclo([Ac5c][NMeL][d(β3hA)][NMeV]I[Sar][Aze][NMePhe(4-Cl)][Sar][hPhe(3-Cl-4-CF3)][NMeL])), for which the IC50 is 10 nM.
For the molecule `CC[C@H](C)[C@@H]1NC(=O)[C@H](CC(C)C)N(C)C(=O)C[C@@H](C(=O)N2CCCCC2)N(C)C(=O)[C@H](C2CCCCC2)N(C)C(=O)C2(CCCC2)NC(=O)[C@@H]2CCCN2C(=O)[C@H](CCc2ccc(C(F)(F)F)c(Cl)c2)NC(=O)CN(C)C(=O)[C@H](CCOC)N(C)C(=O)CN(C)C(=O)CN(C)C1=O` [Compound 159] ([NMeL]I[Sar][Sar][NMehSer](Me)[Sar][hPhe(3-Cl-4-CF3)]P[Ac5c][NMeChg][NMeD]-Piperidide; lactam N-11), the IC50 came to 2.4 nM.
Regarding `CC[C@H](C)[C@@H]1NC(=O)[C@H](CC(C)C)N(C)C(=O)C[C@@H](C(=O)N2CCCCC2)N(C)C(=O)[C@H](CCS(C)(=O)=O)N(C)C(=O)C2(CCCC2)NC(=O)[C@@H]2CCCN2C(=O)[C@H](CCc2ccc(C(F)(F)F)c(Cl)c2)NC(=O)CN(C)C(=O)[C@H](CC2CCCCC2)N(C)C(=O)CN(C)C(=O)CN(C)C1=O` [Compound 162] ([NMeL]I[Sar][Sar][NMeCha][Sar][hPhe(3-Cl-4-CF3)]P[Ac5c][NMeMet(O2)][NMeD]-Piperidide; lactam N-11), the IC50 is 230 nM.
Regarding `CC[C@H](C)[C@@H]1NC(=O)[C@H](CC(C)C)N(C)C(=O)C[C@@H](C(=O)N2CCCCC2)N(C)C(=O)[C@H](CC(C)C)NC(=O)C(C)(C)N(C)C(=O)[C@H](Cc2ccc(C)cc2)NC(=O)[C@H](Cc2cccc(I)c2)NC(=O)CN(C)C(=O)[C@H](CC2CCCCC2)N(C)C(=O)CN(C)C(=O)CN(C)C1=O` [Compound 166] ([NMeL]I[Sar][Sar][NMeCha][Sar][Phe(3-I)][Phe(4-Me)][NMeAib]L[NMeD]-Piperidide; lactam N-11), the IC50 came out at 21 nM.
For `CC[C@H](C)[C@@H]1NC(=O)[C@H](CC(C)C)N(C)C(=O)C[C@@H](C(=O)N2CCCCC2)N(C)C(=O)[C@H](C(C)C)N(C)C(=O)C2(CCCC2)NC(=O)[C@@H]2CCCN2C(=O)[C@H](CCc2ccc(Cl)cc2)NC(=O)CN(C)C(=O)[C@H](CC2CCCC2)N(C)C(=O)CN(C)C(=O)CN(C)C1=O` [Compound 167] ([NMeL]I[Sar][Sar][NMeAla(cPent)][Sar][hPhe(4-Cl)]P[Ac5c][NMeV][NMeD]-Piperidide; lactam N-11), the IC50 turned out to be 58 nM.
For the molecule `CC[C@H](C)[C@@H]1NC(=O)[C@H](CC(C)C)N(C)C(=O)C[C@@H](C(=O)N2CCCCC2)N(C)C(=O)[C@H](CC(C)C)NC(=O)C(C)(C)N(C)C(=O)[C@H](Cc2ccc(OC)cc2)NC(=O)[C@H](Cc2cccc(I)c2)NC(=O)CN(C)C(=O)[C@H](CC2CCCCC2)N(C)C(=O)[C@@H]2CCN2C(=O)[C@H](C)N(C)C1=O` [Compound 169] ([NMeL]I[NMeA][Aze][NMeCha][Sar][Phe(3-I)]Y(Me)[NMeAib]L[NMeD]-Piperidide; lactam N-11), the IC50 is 16 nM.
On to `CC[C@H](C)[C@@H]1NC(=O)[C@H](CC(C)C)N(C)C(=O)C[C@@H](C(=O)N(C)C)N(C)C(=O)[C@H](C2CCCC2)N(C)C(=O)C2(CCCC2)NC(=O)[C@H](Cc2cccc(Cl)c2)N(C)C(=O)[C@H](CCc2ccc(C(F)(F)F)c(Cl)c2)NC(=O)CN(C)C(=O)[C@H](CC2CCCCC2)N(C)C(=O)[C@@H]2CCN2C(=O)[C@H](C)N(C)C1=O` [Compound 179] ([NMeL]I[NMeA][Aze][NMeCha][Sar][hPhe(3-Cl-4-CF3)][NMePhe(3-Cl)][Ac5c][NMeGly(cPent)][NMeD]-NMe2; lactam N-11), for which the IC50 came out at 42 nM.
`CC[C@H](C)[C@@H]1NC(=O)[C@H](CC(C)C)N(C)C(=O)C[C@@H](C(=O)N2CCCCC2)N(C)C(=O)[C@H](C(C)C)N(C)C(=O)C2(CCCC2)NC(=O)[C@@H]2CCCN2C(=O)[C@H](CCc2ccc(C(F)(F)F)c(Cl)c2)NC(=O)CN(C)C(=O)[C@H](CC2CCCCC2)N(C)C(=O)[C@@H]2CCN2C(=O)[C@H](CCC(=O)NC)N(C)C1=O` [Compound 180] ([NMeL]I[NMeE](NHMe)[Aze][NMeCha][Sar][hPhe(3-Cl-4-CF3)]P[Ac5c][NMeV][NMeD]-Piperidide; lactam N-11): the IC50 is 11 nM.
In the case of `CC[C@H](C)[C@@H]1NC(=O)[C@H](CC(C)C)N(C)C(=O)C[C@@H](C)NC(=O)[C@H](C2CCC2)N(C)C(=O)C2(CCCC2)NC(=O)[C@@H]2CCCN2C(=O)[C@H](CCc2ccc(C(F)(F)F)c(Cl)c2)NC(=O)CN(C)C(=O)[C@H](CC2CCCCC2)N(C)C(=O)CN(C)C(=O)CN(C)C1=O` [Compound 183] (cyclo([Ac5c][NMeGly(cBu)][d(β3hA)][NMeL]I[Sar][Sar][NMeCha][Sar][hPhe(3-Cl-4-CF3)]P)), the IC50 amounted to 26 nM.
